Assays:
[1] = target: T1, human recombinant HDAC6 (Homo sapiens, UniProt Q9UBN7); test: HDAC6 enzyme activity inhibition (fluorimetric, in vitro); format: biochemical; conditions: samples at 0.1, 1, 10, 100 and 1000 nM
T1 construct: purchased Calbiochem 382180
T1 sequence (Q9UBN7 1-1215): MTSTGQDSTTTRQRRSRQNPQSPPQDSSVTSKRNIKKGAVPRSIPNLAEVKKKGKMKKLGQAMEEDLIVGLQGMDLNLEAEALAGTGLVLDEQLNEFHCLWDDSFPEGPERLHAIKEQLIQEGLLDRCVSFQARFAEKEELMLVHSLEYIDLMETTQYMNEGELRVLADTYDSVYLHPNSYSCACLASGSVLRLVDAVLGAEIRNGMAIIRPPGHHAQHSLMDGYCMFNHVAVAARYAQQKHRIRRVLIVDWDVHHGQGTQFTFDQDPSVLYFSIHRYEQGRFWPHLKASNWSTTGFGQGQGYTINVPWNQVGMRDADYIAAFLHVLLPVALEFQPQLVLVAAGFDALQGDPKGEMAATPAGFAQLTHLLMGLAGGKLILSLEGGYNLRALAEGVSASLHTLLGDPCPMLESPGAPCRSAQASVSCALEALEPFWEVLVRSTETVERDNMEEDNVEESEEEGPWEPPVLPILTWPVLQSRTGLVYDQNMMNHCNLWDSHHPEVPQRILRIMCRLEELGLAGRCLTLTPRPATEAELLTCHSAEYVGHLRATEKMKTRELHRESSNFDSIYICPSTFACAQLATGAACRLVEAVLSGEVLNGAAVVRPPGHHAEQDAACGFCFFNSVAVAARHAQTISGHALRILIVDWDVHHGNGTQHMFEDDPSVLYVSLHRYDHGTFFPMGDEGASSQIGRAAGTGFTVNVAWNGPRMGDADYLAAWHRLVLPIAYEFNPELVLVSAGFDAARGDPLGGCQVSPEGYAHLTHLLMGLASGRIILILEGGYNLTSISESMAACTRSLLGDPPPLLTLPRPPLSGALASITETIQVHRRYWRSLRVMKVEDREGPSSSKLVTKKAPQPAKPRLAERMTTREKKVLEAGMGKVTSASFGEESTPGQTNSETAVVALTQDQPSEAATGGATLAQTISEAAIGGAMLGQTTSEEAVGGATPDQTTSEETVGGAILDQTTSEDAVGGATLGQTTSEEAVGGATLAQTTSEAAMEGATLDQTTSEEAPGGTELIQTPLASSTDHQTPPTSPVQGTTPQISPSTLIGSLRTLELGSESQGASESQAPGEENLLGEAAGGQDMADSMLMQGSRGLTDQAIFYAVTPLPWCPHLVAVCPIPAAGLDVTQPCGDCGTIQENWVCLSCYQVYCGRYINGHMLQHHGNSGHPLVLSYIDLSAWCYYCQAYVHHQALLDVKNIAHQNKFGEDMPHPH
Procedure, shortened: (§1)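 Recombinant human HDAC1 or HDAC6 (0.3 μg) with Fluor de Lys-SIRT1 substrate at […], 60 min at 37 °C, then developer 30 min; fluorescence Ex 360/Em 460. Compounds at 100–10000 nM for HDAC1 and 0.1–1000 nM for HDAC6; IC50 calculated.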

[2] = target: T2, human recombinant HDAC1 (Homo sapiens, UniProt Q13547); test: HDAC1 enzyme activity inhibition (HDAC1 Fluorimetric Drug Discovery Assay Kit, in vitro); format: biochemical; conditions: samples at 100, 1000 and 10000 nM
T2 construct: purchased Enzolifesciences BML-SE456
T2 sequence (Q13547 whole entry): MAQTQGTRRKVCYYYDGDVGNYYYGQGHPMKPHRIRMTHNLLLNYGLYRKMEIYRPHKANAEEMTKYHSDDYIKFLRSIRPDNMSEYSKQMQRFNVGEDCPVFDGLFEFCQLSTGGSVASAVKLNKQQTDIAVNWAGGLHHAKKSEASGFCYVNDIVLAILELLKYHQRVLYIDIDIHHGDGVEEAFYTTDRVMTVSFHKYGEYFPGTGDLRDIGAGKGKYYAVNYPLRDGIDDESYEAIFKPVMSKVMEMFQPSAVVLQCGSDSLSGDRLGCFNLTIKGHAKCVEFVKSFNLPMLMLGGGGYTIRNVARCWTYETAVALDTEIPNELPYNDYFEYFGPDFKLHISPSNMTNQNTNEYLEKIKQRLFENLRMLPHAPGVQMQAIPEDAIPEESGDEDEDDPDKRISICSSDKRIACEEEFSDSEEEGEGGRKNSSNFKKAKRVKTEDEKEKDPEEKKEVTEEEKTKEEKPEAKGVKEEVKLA
Procedure, shortened: as §1

SMILES	IC50 [1] [nM]	IC50 [2] [µM]
N=S1(=O)CCC(NC(=O)N(Cc2ccc(-c3nnc(C(F)F)o3)cc2F)c2ccccc2)CC1 (centres unmarked) [Compound 59, 1-(4-(5-(difluoromethyl)-1,3,4-oxadiazol-2-yl)-2-fluorobenzyl)-3-(1-imino-1-oxidotetrahydro-2H-thiopyran-4-yl)-1-phenylurea]	116	> 10
N=S1(=O)CCN(C(=O)N(Cc2ccc(-c3nnc(C(F)F)o3)cn2)c2ccc(F)cc2)CC1 [Compound 62, N-[[5-[5-(difluoromethyl)-1,3,4-oxadiazol-2-yl]-2-pyridyl]methyl]-N-(4-fluorophenyl)-1-imino-1-oxo-1,4-thiazinan-4-carboxamide]	88.4	> 10
N=S1(=O)CCN(C(=O)N(Cc2ccc(-c3nnc(C(F)F)o3)cc2F)c2ccc(F)cc2)CC1 [Compound 63, N-[[4-[5-(difluoromethyl)-1,3,4-oxadiazol-2-yl]-2-fluoro-phenyl]methyl]-N-(4-fluorophenyl)-1-imino-1-oxo-1,4-thiazinan-4-carboxamide]	99.6	> 10
CC1CN(C(=O)N(Cc2ccc(-c3nnc(C(F)F)o3)cn2)c2ccc(F)cc2)CC(C)S1(=N)=O (centres unmarked) [Compound 64, N-[[5-[5-(difluoromethyl)-1,3,4-oxadiazol-2-yl]-2-pyridyl]methyl]-N-(4-fluorophenyl)-1-imino-2,6-dimethyl-1-oxo-1,4-thiazinan-4-carboxamide]	123	> 10
CC1CN(C(=O)N(Cc2ccc(-c3nnc(C(F)F)o3)cc2F)c2ccc(F)cc2)CC(C)S1(=N)=O (centres unmarked) [Compound 65, N-[[4-[5-(difluoromethyl)-1,3,4-oxadiazol-2-yl]-2-fluoro-phenyl]methyl]-N-(4-fluorophenyl)-1-imino-2,6-dimethyl-1-oxo-1,4-thiazinan-4-carboxamide]	105	> 10
N=S1(=O)CCN(C(=O)N(Cc2ccc(-c3nnc(C(F)F)o3)cc2F)c2cccnc2)CC1 [Compound 66, N-[[4-[5-(difluoromethyl)-1,3,4-oxadiazol-2-yl]-2-fluoro-phenyl]methyl]-1-imino-1-oxo-N-(3-pyridyl)-1,4-thiazinan-4-carboxamide]	90.2	> 10
CC(=O)N1CCC(c2ccc(N(Cc3ccc(-c4nnc(C(F)F)o4)cc3F)C(=O)N3CCS(=N)(=O)CC3)cc2)CC1 [Compound 67]	347	> 10
N=S1(=O)CCN(S(=O)(=O)N(Cc2ccc(-c3nnc(C(F)F)o3)cc2F)c2cc(F)ccc2F)CC1 [Compound 69, N-[[4-[5-(difluoromethyl)-1,3,4-oxadiazol-2-yl]-2-fluoro-phenyl]methyl]-N-(2,5-difluorophenyl)-1-imino-1-oxo-1,4-thiazinan-4-sulfonamide]	124	> 10
COc1cccc(N(Cc2ccc(-c3nnc(C(F)F)o3)cn2)S(=O)(=O)N2CCS(=N)(=O)CC2)c1 [Compound 72, N-[[5-[5-(difluoromethyl)-1,3,4-oxadiazol-2-yl]-2-pyridyl]methyl]-1-imino-N-(3-methoxyphenyl)-1-oxo-1,4-thiazinan-4-sulfonamide]	78.8	> 10
COc1cccc(N(Cc2ccc(-c3nnc(C(F)F)o3)cc2F)S(=O)(=O)N2CCS(=N)(=O)CC2)c1 [Compound 73, N-[[4-[5-(difluoromethyl)-1,3,4-oxadiazol-2-yl]-2-fluoro-phenyl]methyl]-1-imino-N-(3-methoxyphenyl)-1-oxo-1,4-thiazinan-4-sulfonamide]	72.5	> 10
N=S1(=O)CCN(CCS(=O)(=O)N(Cc2ccc(-c3nnc(C(F)F)o3)cc2F)c2ccccc2)CC1 [Compound 74, N-[[4-[5-(difluoromethyl)-1,3,4-oxadiazol-2-yl]-2-fluoro-phenyl]methyl]-2-(1-imino-1-oxo-1,4-thiazinan-4-yl)-N-phenyl-ethanesulfonamide]	63.6	> 10
CS(=N)(=O)C1CCN(C(=O)N(Cc2ccc(-c3nnc(C(F)F)o3)cc2F)c2ccccc2)CC1 (centres unmarked) [Compound 75, N-[[4-[5-(difluoromethyl)-1,3,4-oxadiazol-2-yl]-2-fluoro-phenyl]methyl]-4-(methylsulfonimidoyl)-N-phenyl-piperidin-1-carboxamide]	96.3	> 10
N=S1(=O)CCN(S(=O)(=O)N(Cc2ccc(-c3nnc(C(F)F)o3)cc2F)c2ccc(F)cc2)CC1 [Compound 78, N-[[4-[5-(difluoromethyl)-1,3,4-oxadiazol-2-yl]-2-fluoro-phenyl]methyl]-N-(4-fluorophenyl)-1-imino-1-oxo-1,4-thiazinan-4-sulfonamide]	78.7	> 10
O=C(N=S1(=O)CCN(C(=O)N(Cc2ccc(-c3nnc(C(F)F)o3)nn2)c2cccc(F)c2)CC1)OCc1ccccc1 [Compound 79, Benzyl N-[4-[[6-[5-(difluoromethyl)-1,3,4-oxadiazol-2-yl]pyridazin-3-yl]methyl-(3-fluorophenyl)carbamoyl]-1-oxo-1,4-thiazinan-1-ylidene]carbamate]	87.1	> 10
N=S1(=O)CCN(C(=O)N(Cc2ccc(-c3nnc(C(F)F)o3)nn2)c2cccc(F)c2)CC1 [Compound 80, N-[[6-[5-(difluoromethyl)-1,3,4-oxadiazol-2-yl]pyridazin-3-yl]methyl]-N-(3-fluorophenyl)-1-imino-1-oxo-1,4-thiazinan-4-carboxamide]	146	> 10

Compounds with a lower IC50 [1], results first:

IC50 [1] [nM]	IC50 [2] [µM]	SMILES
52.2	> 10	N=S1(=O)CCN(S(=O)(=O)N(Cc2ccc(-c3nnc(C(F)F)o3)cc2F)c2cccc(Cl)c2)CC1 [Compound 70, N-(3-chlorophenyl)-N-[[4-[5-(difluoromethyl)-1,3,4-oxadiazol-2-yl]-2-fluoro-phenyl]methyl]-1-imino-1-oxo-1,4-thiazinan-4-sulfonamide]
51.6	> 10	N=S1(=O)CCN(S(=O)(=O)N(Cc2ncc(-c3nnc(C(F)F)o3)cc2F)c2ccc(F)cc2)CC1 [Compound 77, N-[[5-[5-(difluoromethyl)-1,3,4-oxadiazol-2-yl]-3-fluoro-2-pyridyl]methyl]-N-(4-fluorophenyl)-1-imino-1-oxo-1,4-thiazinan-4-sulfonamide]
39.9	> 10	N=S1(=O)CCN(S(=O)(=O)N(Cc2ccc(-c3nnc(C(F)F)o3)cn2)c2ccc(F)cc2)CC1 [Compound 76, N-[[5-[5-(difluoromethyl)-1,3,4-oxadiazol-2-yl]-2-pyridyl]methyl]-N-(4-fluorophenyl)-1-imino-1-oxo-1,4-thiazinan-4-sulfonamide]
39	> 10	N=S1(=O)C[C@@H]2C[C@H]1CN2C(=O)N(Cc1ccc(-c2nnc(C(F)F)o2)cc1F)c1ccccc1 (stereo partly drawn) [Compound 68, (1S,4S)—N-[[4-[5-(difluoromethyl)-1,3,4-oxadiazol-2-yl]-2-fluoro-phenyl]methyl]-2-imino-2-oxo-N-phenyl-2lambda6-thia-5-azabicyclo[2.2.1]heptan-5-carboxamide]
31.7	> 10	N=S1(=O)CCN(S(=O)(=O)N(Cc2ccc(-c3nnc(C(F)F)o3)cn2)c2cccc(Cl)c2)CC1 [Compound 71, N-(3-chlorophenyl)-N-[[5-[5-(difluoromethyl)-1,3,4-oxadiazol-2-yl]-2-pyridyl]methyl]-1-imino-1-oxo-1,4-thiazinan-4-sulfonamide]
29.8	> 10	N=S1(=O)CCN(c2c(N(Cc3ncc(-c4nnc(C(F)F)o4)cc3F)c3ccccc3)c(=O)c2=O)CC1 [Compound 61, 3-(((5-(5-(difluoromethyl)-1,3,4-oxadiazol-2-yl)-3-fluoropyridin-2-yl)methyl)(phenyl)amino)-4-(1-imino-1-oxidothiomorpholino)cyclobut-3-en-1,2-dione]
26.7	> 10	N=S1(=O)CCN(c2c(N(Cc3ccc(-c4nnc(C(F)F)o4)cc3F)c3ccccc3)c(=O)c2=O)CC1 [Compound 60, 3-((4-(5-(difluoromethyl)-1,3,4-oxadiazol-2-yl)-2-fluorobenzyl)(phenyl)amino)-4-(1-imino-1-oxidothiomorpholino)cyclobut-3-en-1,2-dione]

— patent publication US20260125370A1, “SULFOXIMINE COMPOUNDS AS HISTONE DEACETYLASE 6 INHIBITOR, AND PHARMACEUTICAL COMPOSITION COMPRISING THE SAME” (CHONG KUN DANG PHARMACEUTICAL CORP., priority 2022, published 2026)
